Laboratory results from patent US6897287B1, “Ro/SSA peptide reagents for diagnosis of autoantibodies” (Oklahoma Medical Research Foundation, priority 1990, dated 2005).
Entries after “also recorded” stand apart in the source; their conditions may differ. Where no end group is shown, it is not given here.

How the values were obtained:
[1] = tested on: anti-Sm and anti-nRNP precipitin sera (IgG); test: Solid phase antipeptide assay of Sm B/B' and related peptides with Sm, nRNP precipitin positive sera; assay type: binding, human; details: for antigenicity / reactivity in words: sera 1/100, Sm and nRNP precipitin positive SLE patients
Protocol: Sera. Human sera form patients who satisfied the classification criteria of the American Rheumatism Association for SLE or normal age-matched, sex-matched controls were used in this study. Fifteen sera from lupus patients were tested. Ten of these sera tested contained antibodies that formed strong precipitin lines with both Sm and nRNP, three formed precipitin lines with only nRNP, one formed a precipitin line with Ro/SSA and La/SSB, and one formed a precipitin line with only Ro/SSA. All of these serologic findings were confirmed by appropriate molecular weight bands for the reported antigen being bound in immunoblot by the respective sera.
Solid-phase noncleavable peptide synthesis. The published sequence of Sm B/B′ was used to construct all the possible overlapping octapeptides. The amino acids used for peptide synthesis had Fmoc protected primary amino groups and t-butyl (or other appropriate group) protected side chains. Overlapping octapeptides were simultaneously synthesized at the rounded ends of radiation derivatized polyethylene pins that were arranged in the format of a 96 well microliter plate (Cambridge Research Biochemicals. Cambridge, UK and Coselco Mimotopes Pty Ltd. Victoria, Australia) The active esters of Fmoc, t-butyl amino acid solutions (30 mM) were solubilized in DMF that had […] added to a final concentration of 30 mM and dispensed into the wells of a microliter plate. Each amino acid was added as determined by the 240 amino acids of the Raji Sm B/B′ sequence. After 18 h of incubation, the pins were washed in DMF for 5 min. four times at 2 min each in methanol, and once again in DMF for 5 min. The Fmoc protecting groups were then removed from the newly added amino acid by a 20% piperidine/DMF bath for 30 min. These steps were repeated until all eight amino acids were added. After the final amino acid, the amino terminal groups of each peptide was acetylated by incubating the pins in a 5:2:1 (v/v/v) mixture of DMF:acetic anhydride: triethylamine for 90 min at room temperature. After this step the pins were again washed in DMF for 2 min, four times at 2 min each in methanol, and then air-dried for 10 min. Finally, side chain amino protecting groups were removed by […] (v/w/v) of trifluoracetic acid:phenol:ethanedithiol. Wash steps included 2 min in methylene chloride, two times at 5 min each in 5% […]/methylene chloride, and a final methylene chloride wash for 5 min. After drying for 10 min., pins were placed in distilled water for 2 min., transferred to a methanol bath for 18 h. and dried under vacuum for 18 h. This procedure was repeated to synthesize another set of the carboxyl-terminal 36 octapeptides to allow substantiation of the previous data. In addition other octapeptides, including the amino acid changes seen in the vanDam/Ohosone Proc. Natl. Acad. Sci. USA 86:4249 (1989) sequences, were also synthesized. Selected substitution and deletion sequences, along with similar sequences from other proteins, were also constructed. Control pins composed of amino acids in a random sequence were prepared that were not present in any of the Sm or nRNP antigen sequences. In addition, positive control pins were synthesized from a known reactive sequence of the La/SSB peptide.
Solid phase antipeptide assay. Wash steps and incubations were carried out in sealed plastic containers. Other assay steps were performed by lowering the pins into microliter plate wells. First, pins were blocked with 3% low-fat milk in PBS for 1 h at room temperature. Pins were then incubated in 1/100 dilutions of sera in 3% milk/PBS with 0.05% TWEEN® (surfactant) overnight at 4° C. in humidified sealed containers. The pin blocks were then washed four times with PBS with 0.05% TWEEN® (surfactant) for 10 min each with vigorous agitation. […]

[2] = tested on: affinity purified anti-La/SSB antibodies; test: Pin ELISA of La/SSB octapeptides with affinity purified anti-La/SSB antibodies; assay type: binding, human; details: for enrichment of binding relative to the serum: affinity enriched preparation, patient E11, peak or average reactivities; for binding by affinity enriched anti-La/SSB preparation: preparation from patient E11
Protocol: Solid Phase Anti-peptide Assay. All steps were carried out by immersing the pin blocks into microtiter plate wells. Pins were incubated in blocking buffer (1% bovine serum albumin (BSA) in phosphate buffered saline (PBS), pH 7.2) for 1 h at room temperature and then in 1:100 dilutions of sera in diluent (1% BSA and 0.05% Tween in PBS) overnight at […] in humidified containers. Pin blocks were washed four times with wash buffer (0.05% Tween in PBS) for 10 min with agitation and then immersed for 1 h at room temperature in affinity purified goat anti-human-chain specific antibody conjugated to alkaline phosphatase (Sigma Chemical Co., St. Louis, Mo.) diluted 1:1000 in diluent. After washing as above, pins were incubated in para-nitrophenyl phosphate solution at 37° C. for 2 h. Color development was read at 410 nm on a DYNATECH® MR5000 ELISA plate reader.
Samples. Sera from five normal, healthy donors and ten patients with primary SS and/or SLE were screened by pin ELISA for antibodies binding to the La/SSB octapeptides. Eight of these ten patients had both anti-Ro/SSA and anti-La/SSB precipitin forming autoantibodies, and seven of these eight had borne children with congenital heart block (CCHB). Two patients had antibodies to Ro/SSA alone. Anti-La/SSB antibodies were affinity purified from the sera of two patients on La/SSB cross-linked immunosorbents as described by Horsfall, et al., J. Immunol. Meth. 104:43 (1987).
Anti-La/SSB antibodies from two patients have been affinity purified on La/SSB cross-linked immunosorbents. […] The affinity enriched preperation binds 17 of the 18 previously identified epitopes, the exception being epitope 17 (octapeptide 379); however, this preperation does bind octapeptides adjacent to epitope 17, particularly octapeptides 380 and 382. Those putative epitopes in which the binding is most enriched include epitopes 2, 3, 6, 9, 10, 12, 13 and 15. These same epitopes appear enriched whether peak or average reactivities for each putative epitope are compared. Essentially the same results have been obtained from an affinity enriched preparation of the anti-La/SSB from a second patient.

[3] = tested on: antibody of patient serum; test: Solid phase assay of nRNP (70 kD, A, C) octapeptides with patient sera; assay type: binding, human; details: nRNP A sequences marked (*)
Description: The sequence of the 70 kD nuclear ribonucleoprotein (nRNP) is reported by R. A. Spritz, et al., in Nucleic Acids Res. 24: 10373-10391 (1987), the teachings of which are incorporated herein. The data analysis is done the same as for the Ro/SSA and La/SSB antigens. Each sequence identified represents the binding of antibody to octapetides that exceed arbitrary criteria in the solid phase assay. The identified antigenic regions are more than two standard deviations above the mean of normal sera and are bound by more than half of the patients. For the binding to the 70 kD peptide, the threshold in the assay is A410 of 0.380. The numbers in parentheses are the sequence positions of the first amino acid in the first octapeptide that exceeds the threshold. Each identified sequence is composed of one or more octapeptides. The number of octapeptides in each sequence is the length of the sequence […]. The underlined part of the sequence is the octapeptide that is bound most by the patient serum. In some cases, another octapeptide is essentially equivalent but not underlined.

[4] = tested on: KSm 3 monoclonal autoantibody; test: Binding of monoclonal antibody KSm 3 to Sm B/B' octapeptides; set-up: species or system MRL lpr/lpr mouse; details: hybridoma supernatant
Description: (§1) Autoantibodies binding the Sm B and B′ peptides (B/B′) are commonly associated with systemic lupus erythernatosus in man and in MRL lpr/lpr mice. KSm 3 and KSm 5 were derived from an unmanipulated MRL lpr/lpr mouse using hybridoma monoclonal antibody technology. Supernatants containing KSm 3 and KSm 5 monoclonal antibodies were collected from cloned murine hybridoma cell lines in RPMI 1640 with 10% fetal bovine serum, glutamine, penicillin and streptomycin. These monoclonal autoantibodies are both of the IgG2a subclass. The linear antigenic regions of these two anti-Sm B/B′ murine monoclonal autoantibodies have been mapped using overlapping octapeptides. Unique epitopes are identified by each monoclonal. Monoclonal antibody KSm 5 recognizes the peptide, PPPGMRPP (amino acids 4-11 of SEQ ID NO:14), which is repeated three times in the Sm B polypeptide. […] Both of these regions of Sm B/B′ are major areas of antigericity for human anti-Sm autoantibodies. […] When the arginine in the sixth position PPPGMRPP (amino acids 4-11 of SEQ ID NO:14) is substituted KSm 5 binding is found in an unexpected subset of octapeptides. […] In contrast, binding of KSm 3 to PPPGIRPP (SEQ ID NO:122) is abolished when the sixth position arginine is substituted by any other amino acid. These two murine autoantibodies bind distinct linear epitopes of Sm B/B′ which are also bound by human anti-Sm B/B′ autoantibodies. […]

[5] = tested on: sera that contain an anti-Sm precipitin in the absence of an anti-nRNP precipitin; test: Solid phase antipeptide assay with sera having anti-Sm precipitin alone; assay type: binding, human; details: anti-Sm precipitin without anti-nRNP precipitin
Protocol: Solid phase antipeptide assay. Wash steps and incubations were carried out in sealed plastic containers. Other assay steps were performed by lowering the pins into microliter plate wells. First, pins were blocked with 3% low-fat milk in PBS for 1 h at room temperature. Pins were then incubated in 1/100 dilutions of sera in 3% milk/PBS with 0.05% TWEEN® (surfactant) overnight at 4° C. in humidified sealed containers. The pin blocks were then washed four times with PBS with 0.05% TWEEN® (surfactant) for 10 min each with vigorous agitation. Next, each pin was incubated with anti-human gamma-chain specific IgG raised in a goat, affinity purified and conjugated to alkaline phosphatase (Jackson Immunoresearch Laboratories, West Grove, Pa.) at a {fraction (1/10,000)} dilution. Paranitrophenyl phosphate disodium was used as a substrate for alkaline phosphatase and plates were read at 405 nm with a MICROELISA Reader (Dynatech, Alexandria, Va.). Results for each plate were then standardized by comparison with positive control pins. The same control pins were used for all plates and were allowed to develop to a specific OD with a known concentration of a standard control sera.
All antigenic sites determined in this study require a positively charged amino acid. The size of these sites varies from two nonconsecutive basic amino acids to an entire octapeptide. […]

[6] = tested on: KSm 5 monoclonal autoantibody; test: Binding of monoclonal antibody KSm 5 to Sm B/B' octapeptides; set-up: species or system MRL lpr/lpr mouse; details: hybridoma supernatant
Description: as §1

Row | Substance | antigenicity / reactivity in words [1] | enrichment of binding relative to the serum [2] | further results
1 | PPP | no solely poly-proline sequence tested | – | –
2 | IFVVFDSIE [epitope 9] | – | most enriched | –
3 | ERDRKREKRKPKS | – | – | proportion of sera binding [3]: bound by a subset of the sera tested
4 | TDFNVIVEA [epitope 12] | – | most enriched | –
5 | PPPGIRGP (listed as Homo sapiens) | bound by all the Sm, nRNP sera tested | – | binding by KSm 3 in words [4]: binds best
6 | octapeptide 380: La/SSB octapeptide adjacent to epitope 17, starting at amino acid 380 (GPVKRARE; UniProt P05455 380-387, looked up, fragment) | – | – | binding by affinity enriched anti-La/SSB preparation [2]: does bind
7 | LVSRSLKMRQAF | – | – | proportion of sera binding [3]: bound by a subset of the sera tested
8 | PPPP (homo sapien) | no solely poly-proline sequence tested | – | –
9 | PGIRGPPP (homo sapien) | – | – | binding by KSm 3 in words [4]: binds best
10 | PPPGMIPP (homo sapien) | not antigenic; also recorded: does not bind | – | antigenicity / reactivity in words ([1]; listed as nRNP A): relatively no reactivity
11 | PPPGMR (not fully specified) | does not appear to significantly alter binding | – | –
12 | PPPGMRP (PPPGMXP; homo sapien; (3)..(10) Binding site) | does not appear to significantly alter binding | – | –
13 | PPPGMRPP (listed as Homo sapiens) | especially antigenic; also recorded: consistently the most immunoreactive; also recorded: similarly antigenic in each; also recorded: major linear antigenic epitope | – | binding in words [5]: does not appear to be bound; binding by KSm 5 in words [6]: recognizes
14 | PPPGM (homo sapien; (3)..(10) Binding site) | – | – | reactivity to the PPPGMRPP motif destroyed ([1]; deletion peptides, six patient sera): Greater than 60%
15 | octapeptide 382: La/SSB octapeptide adjacent to epitope 17, starting at amino acid 382 (VKRAREET; UniProt P05455 382-389, looked up, fragment) | – | – | binding by affinity enriched anti-La/SSB preparation [2]: does bind
16 | ICHQIEYYFGDFNLPRDKFLK [epitope 2] | – | most enriched | –
17 | REDLHILF [epitope 15] | – | most enriched | –
18 | GEIKWIDFVRGAK [epitope 6] | – | most enriched | –
19 | EGIILFKEKAK [epitope 13] | – | most enriched | –
20 | DCDEFRKI (homo sapien) [octapeptide 44] | Binding is lost | – | –
21 | PAPGMRPP (homo sapien) | as antigenic as PPPGMRPP | – | original reactivity (binding) of PPPGMRPP retained ([1]; substituted or homologous octapeptides, six patient sera): over 90%
22 | PKNAKQPE (homo sapien) [octapeptide 53] | Binding is lost | – | –
23 | WVPLEIMIKFNR [epitope 3] | – | most enriched | –
24 | KETDLLILFKDDYFA [epitope 10] | – | most enriched | –
25 | PPPPP (homo sapien) | no solely poly-proline sequence tested | – | –
